A melting point compilation (Tetko et al.; mined from patent text by program, amines drawn as free bases though some values may be those of a salt)

| SMILES | melting point |
| --- | --- |
| CC(C)(C)OC(=O)ON=C(C#N)c1ccc(Cl)cc1 | 91 to 92 °C |
| CC1(CC(=O)Nc2ccccc2)OCCc2c1[nH]c1ccccc21 (configuration not stated) | 205 to 208 °C |
| CCNC(=O)Nc1c(Cl)cccc1[Si](C)(C)C | 161 to 163 °C |
| Nc1nc(SCC2CC2)c2ncn(C3C=CC(CO)C3)c2n1 (configuration not stated) | 125 to 127 °C |
| CC(C)N(C(N)=O)C(Oc1ccccc1)C(C)(O)Cl (configuration not stated) | 154 °C |
| Oc1ccc2c(c1)COc1c-2cc2ccc(O)cc2c1-c1ccco1 | 158 to 163 °C |
| Cc1cc(NC2=NCCN2)n(CCC(C)C)n1 | 104 to 106 °C |
| O=C1C=CC(=O)N1c1ccccc1SCCSc1ccccc1N1C(=O)C=CC1=O | 110 to 115 °C |
| COCCn1cc(C(=O)NCc2ccc(Cl)cc2)c(=O)c2cc(CN(C)C[C@@H](O)c3ccco3)sc21 | 121 to 122 °C |
| CCOC1=NS(=O)C(C(N)=O)=C1Br (configuration not stated) | 168 to 172 °C |
| CCCCN(C)C(=O)CCCCCCCCCCSC1Cc2cc(O)ccc2C2CCC3(C)C(O)CCC3C12 (configuration not stated) | 71 to 75 °C |
| O=C(O)c1ccc(-c2ccoc2)s1 | 147 °C |
| CCCCCCCCc1cccc(CCC(N)(CO)CO)c1 | 89 to 92 °C |
| CC(C)Nc1ncnc2c1ncn2Cc1c(Cl)cccc1Cl | 109 to 110 °C |
| CC(=O)c1cn(C)cc(-c2cccc(C(F)(F)F)c2)c1=O | 130 to 131 °C |
| Cc1nn(CC(F)(F)COC(=O)CN(C)C)c(-c2ccc(F)cc2)c1-c1ccc2c(c1)NC(=O)CO2 | 153 to 155 °C |
| Cn1c(=O)c2c(nc3n(Cc4ccccc4)c(=O)cc(O)n23)n(C)c1=O | 206 to 209 °C |
| O=C1N[C@H](Cc2ccc(C(F)(F)F)cc2)[C@H](c2ccc(Oc3ccccc3)cc2)O1 (racemic) | 110 to 111 °C |
| CC(C)(C)C(CO)NC(=O)C(CC(=O)O)N1C=CN(c2ccc(-c3ccccc3)cc2)C1 (mixture of isomers) | 145 to 150 °C |
| C[Si](C)(C)c1ccc(Cl)s1 | 68 to 69 °C |
| CC(C)Cc1ccc2scc(C(C)N(O)C(N)=O)c2c1 (configuration not stated) | 151 to 153 °C |
| Cc1cc(-c2nc3cccnn3c2-c2ccnc(NC(=O)CC(F)(F)F)c2)ccc1F | 220 to 221 °C |
| CS(=O)(=O)c1c(C(=O)NN=Cc2ccc(Cl)cc2)[nH]c2ccccc12 | > 280 °C |
| C#CCN(C(=O)C(F)(F)F)[C@H]1CCc2ccc([N+](=O)[O-])cc21 | 83 to 85 °C |
| O=C(O)c1cn(C2CC2)c2c(F)c(N3CC4CC3CN4)c(F)cc2c1=O (configuration not stated) | 288 to 290 °C |

| SMILES | melting point |
| --- | --- |
| CCCCCCCCCCCCC(=O)c1c[nH]c(C2(OC)OCCSSO2)c1 (configuration not stated) | 77 to 78 °C |
| CSc1nn2c(N)c3c(nc2c1S(=O)(=O)c1ccccc1)CCC3 | > 230 °C |
| O=C1C(=O)N(Cc2ccc(F)nc2)c2ccc(S(=O)(=O)N3CC[C@H]3COc3ccccc3)cc21 | 177 to 178 °C |
| C[C@H](NC(=O)OCC1c2ccccc2-c2ccccc21)C(=O)O | 144 to 146 °C |
| COc1cc(-c2nc3ccc(OCCN(C(C)C)C(C)C)cc3n2Cc2ccccc2C(F)(F)F)cc(OC)c1OC | 184 °C |
| Cn1cc(C#N)c(Br)c1Br | 138 to 139 °C |
| COc1cc2ncnc(N3CCN(C(=O)NCc4ccco4)CC3)c2cc1OC | 168 to 170 °C |
| CCSC1=C(c2ccc(O)cc2)C(=O)c2cc(O)cc(O)c21 | 75 to 77 °C |
| Cc1ccc(-c2ccc([C@H](C)N3CC[C@](CC(C)(C)O)(c4ccccc4)OC3=O)cc2)nn1 | 150 to 152 °C |
| COc1c(C2CCN(CCCCNC(=O)c3ccc(-c4ccc(Cl)nn4)cc3)CC2)ccc2c1CCCC2 | 192 to 194 °C |
| COc1ccc(C2CNC(=O)C2)cc1OCCC(C)N1CCN(c2ccccc2)CC1 (configuration not stated) | 88 to 90 °C |
| Clc1ccc(-c2cc(C3CCN(Cc4ccc5ccccc5c4)CC3)n[nH]2)cc1 | 180 to 181 °C |
| Nc1cc(=O)n(Cc2ccc(Br)c(Cl)c2)[nH]1 | 145 to 146 °C |
| CC(C)=CCc1cc(C=CC(=O)c2ccc(O)cc2O)ccc1O | 167 °C |
| COc1ccccc1CNC(=O)c1oc(=O)c2ncccc2c1-c1ccc(C)cc1 | 189 to 190 °C |
| O=C(NCC12CC3CC(CC(C3)C1)C2)c1cc(-c2cc(F)ccc2C(=O)O)ccc1Cl | 120 to 124 °C |
| O=C1OC(c2ccccc2)=NC1Cc1ccccc1 (racemic) | 70 to 72 °C |
| O=C1CCN2C(=O)c3cccc(-n4c(=O)[nH]c5cnccc5c4=O)c3C2C1 (configuration not stated) | 230 °C |
| COC(=O)C1=NNC(C)=C(C(=O)OC)C1c1cc([N+](=O)[O-])ccc1Cl (configuration not stated) | 193 to 194 °C |
| O=C(Nc1ccc(F)cc1F)c1ccccn1 | 90.5 to 95 °C |
| COc1cccc(OC)c1-c1ccc(C[C@H](NC(=O)c2c(Cl)cc(-c3ccn[nH]3)cc2Cl)C(=O)O)cc1 | 156 °C |
| C=CN1NCC2CC3=C(C=CC(c4ccc(F)cc4)C3)CC21C (configuration not stated) | 70 to 72 °C |
| Cc1cc(CC(=O)N[C@H]2CC[C@H](CCN3CCC(c4cccc5c4CCO5)CC3)CC2)on1 | 188 °C |
| CCCOc1ccc(S(=O)(=O)C(C)C)cc1C(N)=O | 177 to 178 °C |
| C=CCON=C(CC)C1=C(O)CC(c2c(C)c(C)c3c(c2C)CC(C)(C)C3)CC1=O (configuration not stated) | 63 to 65 °C |

| SMILES | melting point |
| --- | --- |
| CC(C)(C)OC(=O)NCCc1cccc(C(=O)Nc2ccc(Nc3cc(-c4cccc5c4oc4ccccc45)ncn3)cc2)c1 | 235 to 238 °C |
| CC(Cl)=CC(C#N)NC(=O)c1cn(C)nc1C (configuration not stated) | 113 to 114 °C |
| Cc1cc(Oc2ncc(Cl)cc2Cl)cc(C)c1N=C=NC(C)(C)C | 69 to 71 °C |
| COC(=O)c1nn(-c2ccc(OCc3ccccc3)cc2F)cc(OC)c1=O | 143 to 144 °C |
| COc1cccc(OC)c1/C=C/S(=O)(=O)CS(=O)(=O)/C=C/c1c(OC)cccc1OC | 118 to 120 °C |
| CCC1c2cccn2-c2c(cc(F)c(F)c2F)N1S(=O)(=O)c1ccc(O)cc1 (configuration not stated) | 155 to 156 °C |
| Cc1nnc(-c2ccc3scc(-c4ccc(S(C)(=O)=O)cc4)c3c2)o1 | 231 to 232 °C |
| CCCCCc1c(C(C)C)nc(C(C)C)c(CO)c1-c1ccccc1O | 126 °C |
| CC(C)c1c(C(=O)Nc2ccccc2)c(-c2ccccc2)c(-c2ccc(F)cc2)n1CC[C@@H]1C[C@H](CC(=O)OC(C)(C)C)OC(C)(C)O1 | 140 to 142 °C |
| COCN1C(C)=C(C(=O)OC)[C@H](c2cccc([N+](=O)[O-])c2)C(C(=O)OCOC(=O)C(C)(C)C)=C1C | 113 to 114 °C |
| CNc1nc(-c2cccnc2)nc(NC)c1C(=O)Nc1ccc(C)c(C)c1 | 285 to 286 °C |
| COc1cc(C(=O)O)cc2c1CC(C)O2 (configuration not stated) | 180 to 182 °C |
| CC(C)c1cccc(C(C)C)c1N=C(c1ccccc1)N(CC(=O)c1ccccc1)c1c(C(C)C)cccc1C(C)C | 142 to 143 °C |
| COc1ccccc1Oc1cccc(CC(=O)O)c1O | 125 to 126 °C |
| Cc1noc(-c2cn(-c3cccc(-c4ccccc4)c3)cn2)n1 | 163 to 165 °C |
| O=c1c2c(Cc3ccccc3)n[nH]c2c2cccnc2n1-c1ccccc1 | 305 to 308 °C |
| CC(=O)N(C)c1ccc2sc3ccccc3c(=O)c2c1 | 246 to 248 °C |
| c1csc(-c2nc3ccccc3nc2OC2CCC2)c1 | 103 °C |
| O=[N+]([O-])c1ccc(-c2cccnc2)s1 | 169 to 171 °C |
| Nc1nc2ccccc2c2c1nc(-c1ccccc1)n2CCOc1ccccc1 | 182 to 185 °C |
| CCC(O)CP(=O)(O)CCCN (configuration not stated) | 184 to 185 °C |
| CS(=O)(=O)c1ccc(C(CC2CCCC2)C(=O)Nc2ccncn2)cc1[N+](=O)[O-] (configuration not stated) | 91 to 95 °C |
| CCOC(=O)c1cc2c(s1)-n1c(C)nnc1CN=C2c1ccccc1Cl | 148 to 150 °C |
| COc1ccc(CN2CCC(NC(=O)OC(C)(C)C)CC2)cc1 | 95 to 97 °C |
| CN1CCc2cc(O)c(O)c(Sc3ccsc3)c2CC1 | 189 to 191 °C |

| SMILES | melting point |
| --- | --- |
| COC(=O)c1ccc2cc(OCc3cccc(COc4ccc5cc(C(=O)OC)ccc5c4)c3)ccc2c1 | 177 to 178 °C |
| COc1ccccc1N1CCN(CC2Cc3cc(C)c4[nH]c(=O)ccc4c3O2)CC1 (configuration not stated) | 163 to 166 °C |
| COc1cc2c(cc1Nc1ncc(Cl)c(Nc3ccccc3S(=O)(=O)N(C)C)n1)CCN(CCOC(=O)CN)CC2 | 77 to 79 °C |
| O=c1[nH]c2ccccc2n1C1=CCN(C2C=CC(c3ccc(F)cc3)(c3ccc(F)cc3)CC2)CC1 (configuration not stated) | 200 to 202 °C |
| O=C1CN(C(=O)OCc2ccccc2)CC(=O)O1 | 133 to 137 °C |
| CC(C)(C)c1ccc2c(c1)ncn2-c1cccc(Br)n1 | 98 to 100 °C |
| COCC(=O)N[C@H]1CC[C@H](CCN2CCN(c3nccc4ccoc34)CC2)CC1 | 132 °C |
| Cn1ncc2c1-c1c(Oc3ccc(OCc4ccc5ccccc5n4)cc3)sc(C(N)=O)c1CC2 | 139 to 140 °C |
| CCOC(=O)COc1ccc2cc(S(N)(=O)=O)sc2c1 | 182 to 184 °C |
| CC(C)CCCC(C)Cc1nc2c3cc(Br)sc3c3sc(Br)cc3c2nc1CC(C)CCCC(C)C (configuration not stated) | 106 to 108 °C |
| CCOC=NC1=C(C#N)C(c2ccc(F)c(Cl)c2)c2ccc3ccccc3c2O1 (configuration not stated) | 146 to 148 °C |
| Cn1ncc2c(=O)n3ccsc3nc21 | 220 to 221 °C |
| N#CCc1cccc(Cc2nc3c(F)c(F)cc(F)c3s2)c1Cl | 148 to 151 °C |
| COC(=O)CS(=O)(=O)c1ccc(N2CCN(c3ccc(C#N)cc3)C2=O)cc1 | 246 to 249 °C |
| COC(=O)C1=CCC2CC(=O)C12 (configuration not stated) | 58 to 61 °C |
| CCNCC1Cc2cc(F)cc(-c3c(Cl)cccc3Cl)c2O1 (configuration not stated) | 138 °C |
| CCc1ccc(OCCCN2CCN(c3ccc(Cl)nn3)CC2)cc1 | 123 to 125 °C |
| CSc1ccc(-c2cn3c(c2-c2ccccc2)CCC3)cc1 | 112 °C |
| CCCCCC(CC(=O)Nc1cc(C(=O)O)ccc1C(C)(C)C)c1ccc(C(=O)CCC)cc1OC (configuration not stated) | 136 to 138 °C |
| CCOC(=O)c1cn(CCO)c2nc(N3CCN(C(=O)OCC)CC3)c(F)cc2c1=O | 215 to 217 °C |
| C/C=C(/c1ccc(C(=O)O)cc1)c1ccc2c(c1)C(C)(C)CCC2(C)C | 212 °C |
| C#CC1(Oc2ccc(F)cc2N)CCN(C(=O)Oc2ccccc2)CC1 | 125 to 127 °C |
